In general, IC50 refers to the point on the concentration scale where inhibition reaches its midpoint. High values mean a need for much substance, low ones inhibition by little substance.

The assay concerns MDA-MB-436 cells. Kind of assay: MDA-MB-436 breast cancer cell proliferation assay (CellTiter-Glo). To be noted: Homo sapiens, 168 h, 7 days. The assay is classed as cell-based. Here is the method:
MDA-MB-436 cells were grown in Leibovitz's L-15 medium with 10 μg/ml insulin, 16 μg/ml glutathione, 10% FBS. Cells were passaged at subconfluence after trypsinization and maintained in incubators at 37° C. in a humidified atmosphere with 5% CO2.
Cell proliferation was determined using CellTiter-Glo® Luminescent Cell Viability Assay (Promega, #G7573). MDA-MB-436 cells were seeded in 384-well plates and allowed to attach for 24 h. Compounds were added into 384-well plate by ECHO, and incubated at 37 C° in a humidified atmosphere with 5% CO2. After 7 days, CellTiter-Glo was added into 384 well plates, contents were mixed on an orbital shaker at […] for 2 min before centrifuging the plate for 2 min at 1000 rpm. After incubation at RT for 30 min, luminescence was read on envision.
(In general: In ATP-based viability assays light output follows the ATP content of the culture.)

As to `COc1ncnc(C2CC2)c1-c1nn(C)c2c1CN(c1ccc(-n3nc(C(F)(F)F)cc3C)cn1)CC2` [Example 15, 3-(4-cyclopropyl-6-methoxypyrimidin-5-yl)-1-methyl-5-(5-(5-methyl-3-(trifluoromethyl)-1H-pyrazol-1-yl)pyridin-2-yl)-4,5,6,7-tetrahydro-1H-pyrazolo[4,3-c]pyridine], the IC50 was in the range of 50 to 1000 nM.

Source of the values: patent publication US20250026754A1, “SMALL MOLECULE INHIBITORS OF UBIQUITIN SPECIFIC PROTEASE 1 (USP1) AND USES THEREOF” (INSILICO MEDICINE IP LIMITED, priority 2021, published 2025).
